One block for each molecule: values may come before it.
What was measured:
[1] = test system: field bindweed (Convolvulus arvensis); assay: Test D pre-/postemergence plant response; assay type: in vivo
Summary of the method: (§1)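 Seeds were sown in a loam–sand blend and sprayed preemergence with compound in a non-phytotoxic solvent mixture containing surfactant; plants at 2–18 cm (1- to 4-leaf stage) received the same formulation postemergence. After 14 to 21 days in a greenhouse, injury was rated visually against untreated controls (0 = no effect, 100 = complete control).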

[2] = test system: sowthistle (common sowthistle, Sonchus oleraceous); assay: Test D pre-/postemergence plant response; assay type: in vivo
Summary of the method: as §1

[3] = test system: prickly sida (Sida spinosa); assay: Test D pre-/postemergence plant response; assay type: in vivo
Summary of the method: as §1

[4] = test system: guineagrass (Panicum maximum); assay: Test D pre-/postemergence plant response; assay type: in vivo
Summary of the method: as §1

[5] = test system: bermudagrass (Cynodon dactylon); assay: Test D pre-/postemergence plant response; assay type: in vivo
Summary of the method: as §1

[6] = test system: itchgrass (Rottboellia cochinchinensis); assay: Test D pre-/postemergence plant response; assay type: in vivo
Summary of the method: as §1

[7] = test system: green foxtail (Setaria viridis); assay: Test D pre-/postemergence plant response; assay type: in vivo
Summary of the method: as §1

[8] = test system: johnsongrass (Sorghum halepense); assay: Test D pre-/postemergence plant response; assay type: in vivo
Summary of the method: as §1

[9] = test system: mallow (common mallow, Malva sylvestris); assay: Test D pre-/postemergence plant response; assay type: in vivo
Summary of the method: as §1

[10] = test system: spanishneedles (Bidens bipinnata); assay: Test D pre-/postemergence plant response; assay type: in vivo
Summary of the method: as §1

[11] = test system: nutsedge (purple nutsedge, Cyperus rotundus); assay: Test D pre-/postemergence plant response; assay type: in vivo
Summary of the method: as §1

[12] = test system: groundsel (common groundsel, Senecio vulgaris); assay: Test D pre-/postemergence plant response; assay type: in vivo; settings: Postemergence
Summary of the method: as §1

[13] = test system: naked crabgrass (Digitaria nuda); assay: Test D pre-/postemergence plant response; assay type: in vivo
Summary of the method: as §1

[14] = test system: barnyardgrass (Echinochloa crus-galli); assay: Test D pre-/postemergence plant response; assay type: in vivo
Summary of the method: as §1

[15] = test system: Italian ryegrass (Lolium multiflorum); assay: Test D pre-/postemergence plant response; assay type: in vivo
Summary of the method: as §1

[16] = Postemergence, 16 g ai/ha, scale 0 to 100
[17] = Postemergence, 31 g ai/ha, scale 0 to 100
[18] = Postemergence, 125 g ai/ha, scale 0 to 100 (0 no effect, 100 complete control)
[19] = Postemergence, 62 g ai/ha, scale 0 to 100 (0 no effect, 100 complete control)
[20] = Preemergence, 16 g ai/ha, scale 0 to 100, 0 no effect, 100 complete control
[21] = Preemergence, 31 g ai/ha, scale 0 to 100 (0 no effect, 100 complete control)
[22] = Preemergence, 62 g ai/ha, scale 0 to 100
[23] = Preemergence, 125 g ai/ha, scale 0 to 100
[24] = Postemergence, 31 g ai/ha, scale 0 to 100 (0 no effect, 100 complete control)
[25] = Preemergence, rate not given, scale 0 to 100, 0 no effect, 100 complete control

melting point: 168 to 169 °C
Structure (SMILES): Cc1c(F)cccc1-n1c(-c2ccccc2)ncc(C(=O)C2=C(O)CCCC2=O)c1=O [Compound 47, 3-(3-fluoro-2-methylphenyl)-5-[(2-hydroxy-6-oxo-1-cyclohexen-1-yl)carbonyl]-2-phenyl-4(3H)-pyrimidinone]
Plant response rating, Field Bindweed [1, 16]: 35
Plant response rating, Field Bindweed [1, 17]: 40
Plant response rating, Field Bindweed [1, 18]: 65
Plant response rating, Field Bindweed [1, 19]: 50
Plant response rating, Field Bindweed [1, 20]: 0
Plant response rating, Field Bindweed [1, 21]: 0
Plant response rating, Field Bindweed [1, 22]: 0
Plant response rating, Field Bindweed [1, 23]: 35
Plant response rating, Sowthistle [2, 16]: 90
Plant response rating, Sowthistle [2, 17]: 100
Plant response rating, Sowthistle [2, 18]: 100
Plant response rating, Sowthistle [2, 19]: 100
Plant response rating, Sowthistle [2, 20]: 65
Plant response rating, Sowthistle [2, 21]: 65
Plant response rating, Sowthistle [2, 23]: 100
Plant response rating, Prickly Sida [3, 16]: 60
Plant response rating, Prickly Sida [3, 17]: 70
Plant response rating, Prickly Sida [3, 18]: 90
Plant response rating, Prickly Sida [3, 19]: 80
Plant response rating, Prickly Sida [3, 20]: 0
Plant response rating, Prickly Sida [3, 21]: 50
Plant response rating, Prickly Sida [3, 22]: 65
Plant response rating, Prickly Sida [3, 23]: 100
Plant response rating, Guineagrass [4, 16]: 10
Plant response rating, Guineagrass [4, 17]: 20
Plant response rating, Guineagrass [4, 18]: 30
Plant response rating, Guineagrass [4, 19]: 20
Plant response rating, Guineagrass [4, 20]: 0
Plant response rating, Guineagrass [4, 21]: 0
Plant response rating, Guineagrass [4, 22]: 0
Plant response rating, Guineagrass [4, 23]: 0
Plant response rating, Bermudagrass [5, 16]: 50
Plant response rating, Bermudagrass [5, 24]: 50
Plant response rating, Bermudagrass [5, 18]: 90
Plant response rating, Bermudagrass [5, 19]: 70
Plant response rating, Bermudagrass [5, 20]: 10
Plant response rating, Bermudagrass [5, 21]: 25
Plant response rating, Bermudagrass [5, 22]: 50
Plant response rating, Bermudagrass [5, 23]: 100
Plant response rating, Itchgrass [6, 16]: 0
Plant response rating, Itchgrass [6, 17]: 5
Plant response rating, Itchgrass [6, 18]: 10
Plant response rating, Itchgrass [6, 19]: 5
Plant response rating, Itchgrass [6, 20]: 0
Plant response rating, Itchgrass [6, 21]: 0
Plant response rating, Itchgrass [6, 22]: 0
Plant response rating, Itchgrass [6, 23]: 0
Plant response rating, Foxtail, Green [7, 16]: 5
Plant response rating, Foxtail, Green [7, 17]: 35
Plant response rating, Foxtail, Green [7, 18]: 95
Plant response rating, Foxtail, Green [7, 19]: 50
Plant response rating, Foxtail, Green [7, 20]: 0
Plant response rating, Foxtail, Green [7, 21]: 0
Plant response rating, Foxtail, Green [7, 22]: 0
Plant response rating, Foxtail, Green [7, 23]: 0
Plant response rating, Johnsongrass [8, 16]: 5
Plant response rating, Johnsongrass [8, 17]: 15
Plant response rating, Johnsongrass [8, 18]: 65
Plant response rating, Johnsongrass [8, 19]: 35
Plant response rating, Johnsongrass [8, 20]: 0
Plant response rating, Johnsongrass [8, 21]: 0
Plant response rating, Johnsongrass [8, 22]: 0
Plant response rating, Johnsongrass [8, 23]: 75
Plant response rating, Mallow [9, 16]: 35
Plant response rating, Mallow [9, 17]: 50
Plant response rating, Mallow [9, 18]: 65
Plant response rating, Mallow [9, 19]: 65
Plant response rating, Mallow [9, 20]: 0
Plant response rating, Mallow [9, 21]: 0
Plant response rating, Mallow [9, 22]: 65
Plant response rating, Mallow [9, 23]: 98
Plant response rating, Spanishneedles [10, 16]: 35
Plant response rating, Spanishneedles [10, 17]: 40
Plant response rating, Spanishneedles [10, 18]: 70
Plant response rating, Spanishneedles [10, 19]: 65
Plant response rating, Spanishneedles [10, 20]: 0
Plant response rating, Spanishneedles [10, 21]: 95
Plant response rating, Spanishneedles [10, 23]: 95
Plant response rating, Spanishneedles [10, 25]: 95
Plant response rating, Nutsedge, Purple [11, 16]: 0
Plant response rating, Nutsedge, Purple [11, 17]: 0
Plant response rating, Nutsedge, Purple [11, 18]: 20
Plant response rating, Nutsedge, Purple [11, 19]: 10
Plant response rating, Nutsedge, Purple [11, 20]: 0
Plant response rating, Nutsedge, Purple [11, 21]: 0
Plant response rating, Nutsedge, Purple [11, 22]: 10
Plant response rating, Nutsedge, Purple [11, 23]: 35
Plant response rating, Groundsel ([12]; 16 g ai/ha, scale 0 to 100): 100
Plant response rating, Groundsel ([12]; 31 g ai/ha, scale 0 to 100): 100
Plant response rating, Groundsel ([12]; 125 g ai/ha, scale 0 to 100 (0 no effect, 100 complete control)): 100
Plant response rating, Groundsel ([12]; 62 g ai/ha, scale 0 to 100 (0 no effect, 100 complete control)): 100
Plant response rating, Crabgrass, Naked [13, 16]: 20
Plant response rating, Crabgrass, Naked [13, 17]: 35
Plant response rating, Crabgrass, Naked [13, 18]: 65
Plant response rating, Crabgrass, Naked [13, 19]: 35
Plant response rating, Crabgrass, Naked [13, 20]: 0
Plant response rating, Crabgrass, Naked [13, 21]: 0
Plant response rating, Crabgrass, Naked [13, 22]: 60
Plant response rating, Crabgrass, Naked [13, 23]: 98
Plant response rating, Barnyardgrass [14, 16]: 70
Plant response rating, Barnyardgrass [14, 24]: 70
Plant response rating, Barnyardgrass [14, 18]: 70
Plant response rating, Barnyardgrass [14, 19]: 70
Plant response rating, Barnyardgrass [14, 20]: 0
Plant response rating, Barnyardgrass [14, 21]: 0
Plant response rating, Barnyardgrass [14, 22]: 5
Plant response rating, Barnyardgrass [14, 23]: 5
Plant response rating, Ryegrass, Italian [15, 16]: 0
Plant response rating, Ryegrass, Italian [15, 17]: 10
Plant response rating, Ryegrass, Italian [15, 18]: 30
Plant response rating, Ryegrass, Italian [15, 19]: 20
Plant response rating, Ryegrass, Italian [15, 20]: 0
Plant response rating, Ryegrass, Italian [15, 21]: 0
Plant response rating, Ryegrass, Italian [15, 23]: 0
Plant response rating, Ryegrass, Italian [15, 25]: 0

melting point: 121 to 122 °C
Structure (SMILES): COCCCn1c(-c2ccccc2)ncc(C(=O)C2=C(O)CCCC2=O)c1=O [Compound 81, 5-[(2-hydroxy-6-oxo-cyclohexen-1-yl)carbonyl]-3-(3-methoxypropyl)-2-phenyl-4(3H)-pyrimidinone]

From patent US8952024B2, “Herbicidal pyrimidone derivatives” (E I du Pont de Nemours and Company, priority 2009, dated 2015)
